Results: ChEMBL document CHEMBL3853262 (Medchemcomm, 2016)

Legend:
NTERA-2-cl-D1 [1] = experiment: Proapoptotic activity in human NT2/D1 cells by annexin V-FITC/propidium iodide staining-based capillary cytometric method; format: functional, cell-based
ASPC1 = experiment: Proapoptotic activity in human AsPC1 cells by annexin V-FITC/propidium iodide staining-based capillary cytometric method; format: functional, cell-based
BXPC-3 = experiment: Proapoptotic activity in human BxPC3 cells by annexin V-FITC/propidium iodide staining-based capillary cytometric method; format: functional, cell-based
NTERA-2-cl-D1 [2] = experiment: Proapoptotic activity in human NT2/D1 cells assessed as late apoptotic cells at 25 uM after 1 hr by annexin V/propidium iodide staining-based capillary cytometric method relative to control; format: functional
BJ = experiment: Proapoptotic activity in human BJ cells by annexin V-FITC/propidium iodide staining-based capillary cytometric method; format: functional, cell-based
NTERA-2-cl-D1 [3] = experiment: Proapoptotic activity in human NT2/D1 cells assessed as early apoptotic cells at 25 uM after 1 hr by annexin V/propidium iodide staining-based capillary cytometric method relative to control; format: functional
NTERA-2-cl-D1 [4] = experiment: Proapoptotic activity in human NT2/D1 cells assessed as necrotic cells at 25 uM after 1 hr by annexin V/propidium iodide staining-based capillary cytometric method relative to control; format: functional
NTERA-2-cl-D1 [5] = experiment: Proapoptotic activity in human NT2/D1 cells assessed as viable cells at 25 uM after 1 hr by annexin V/propidium iodide staining-based capillary cytometric method relative to control; format: functional; details: NTERA-2-cl-D1, 1 h, read-out: Activity
NTERA-2-cl-D1 [6] = experiment: Proapoptotic activity in human NT2/D1 cells assessed as early apoptotic cells at 25 uM after 3 hrs by annexin V/propidium iodide staining-based capillary cytometric method relative to control; format: functional
NTERA-2-cl-D1 [7] = experiment: Proapoptotic activity in human NT2/D1 cells assessed as late apoptotic cells at 25 uM after 3 hrs by annexin V/propidium iodide staining-based capillary cytometric method relative to control; format: functional
NTERA-2-cl-D1 [8] = experiment: Proapoptotic activity in human NT2/D1 cells assessed as necrotic cells at 25 uM after 3 hrs by annexin V/propidium iodide staining-based capillary cytometric method relative to control; format: functional
NTERA-2-cl-D1 [9] = experiment: Proapoptotic activity in human NT2/D1 cells assessed as viable cells at 25 uM after 3 hrs by annexin V/propidium iodide staining-based capillary cytometric method relative to control; format: functional; details: NTERA-2-cl-D1, 3 h, read-out: Activity
NTERA-2-cl-D1 [10] = experiment: Proapoptotic activity in human NT2/D1 cells assessed as early apoptotic cells at 25 uM after 5 hrs by annexin V/propidium iodide staining-based capillary cytometric method relative to control; format: functional
NTERA-2-cl-D1 [11] = experiment: Proapoptotic activity in human NT2/D1 cells assessed as late apoptotic cells at 25 uM after 5 hrs by annexin V/propidium iodide staining-based capillary cytometric method relative to control; format: functional
NTERA-2-cl-D1 [12] = experiment: Proapoptotic activity in human NT2/D1 cells assessed as necrotic cells at 25 uM after 5 hrs by annexin V/propidium iodide staining-based capillary cytometric method relative to control; format: functional
NTERA-2-cl-D1 [13] = experiment: Proapoptotic activity in human NT2/D1 cells assessed as viable cells at 25 uM after 5 hrs by annexin V/propidium iodide staining-based capillary cytometric method relative to control; format: functional; details: NTERA-2-cl-D1, 5 h, read-out: Activity
NTERA-2-cl-D1 [14] = experiment: Proapoptotic activity in human NT2/D1 cells assessed as early apoptotic cells at 25 uM after 7 hrs by annexin V/propidium iodide staining-based capillary cytometric method relative to control; format: functional
NTERA-2-cl-D1 [15] = experiment: Proapoptotic activity in human NT2/D1 cells assessed as late apoptotic cells at 25 uM after 7 hrs by annexin V/propidium iodide staining-based capillary cytometric method relative to control; format: functional
NTERA-2-cl-D1 [16] = experiment: Proapoptotic activity in human NT2/D1 cells assessed as necrotic cells at 25 uM after 7 hrs by annexin V/propidium iodide staining-based capillary cytometric method relative to control; format: functional
NTERA-2-cl-D1 [17] = experiment: Proapoptotic activity in human NT2/D1 cells assessed as viable cells at 25 uM after 7 hrs by annexin V/propidium iodide staining-based capillary cytometric method relative to control; format: functional; details: NTERA-2-cl-D1, 7 h, read-out: Activity
THP-1 [18] = experiment: Proapoptotic activity in human THP1 cells assessed as early apoptotic cells at 25 uM after 1 hr by annexin V/propidium iodide staining-based capillary cytometric method relative to control; format: functional
THP-1 [19] = experiment: Proapoptotic activity in human THP1 cells assessed as late apoptotic cells at 25 uM after 1 hr by annexin V/propidium iodide staining-based capillary cytometric method relative to control; format: functional
THP-1 [20] = experiment: Proapoptotic activity in human THP1 cells assessed as necrotic cells at 25 uM after 1 hr by annexin V/propidium iodide staining-based capillary cytometric method relative to control; format: functional
THP-1 [21] = experiment: Proapoptotic activity in human THP1 cells assessed as viable cells at 25 uM after 1 hr by annexin V/propidium iodide staining-based capillary cytometric method relative to control; format: functional; details: THP-1, 1 h, read-out: Activity
THP-1 [22] = experiment: Proapoptotic activity in human THP1 cells assessed as early apoptotic cells at 25 uM after 3 hrs by annexin V/propidium iodide staining-based capillary cytometric method relative to control; format: functional
THP-1 [23] = experiment: Proapoptotic activity in human THP1 cells assessed as late apoptotic cells at 25 uM after 3 hrs by annexin V/propidium iodide staining-based capillary cytometric method relative to control; format: functional
THP-1 [24] = experiment: Proapoptotic activity in human THP1 cells assessed as necrotic cells at 25 uM after 3 hrs by annexin V/propidium iodide staining-based capillary cytometric method relative to control; format: functional
THP-1 [25] = experiment: Proapoptotic activity in human THP1 cells assessed as viable cells at 25 uM after 3 hrs by annexin V/propidium iodide staining-based capillary cytometric method relative to control; format: functional; details: THP-1, 3 h, read-out: Activity
THP-1 [26] = experiment: Proapoptotic activity in human THP1 cells assessed as early apoptotic cells at 25 uM after 5 hrs by annexin V/propidium iodide staining-based capillary cytometric method relative to control; format: functional

Compound `CNc1nc(-c2cccc(NC(=O)c3cc4ccccc4[nH]3)c2)c[nH]1.Cl` has an EC50 (NTERA-2-cl-D1 [1]) of 11 µM, an EC50 (ASPC1) of 32 µM and an EC50 (BXPC-3) of 58 µM. It also gave an Activity (NTERA-2-cl-D1 [2]) of 3.59%, an EC50 (BJ) of 21 µM and an Activity (NTERA-2-cl-D1 [3]) of 8.6%. It also gave an Activity (NTERA-2-cl-D1 [4]) of 0.11%, a viability at 25 µM (NTERA-2-cl-D1 [5]) of 87.7% and an Activity (NTERA-2-cl-D1 [6]) of 22.77%. The Activity (NTERA-2-cl-D1 [7]) was 3.24%, the Activity (NTERA-2-cl-D1 [8]) was 0.11% and the viability at 25 µM (NTERA-2-cl-D1 [9]) was 73.9%. It also gave an Activity (NTERA-2-cl-D1 [10]) of 46.36%, an Activity (NTERA-2-cl-D1 [11]) of 6.08% and an Activity (NTERA-2-cl-D1 [12]) of 0.6%. The viability at 25 µM (NTERA-2-cl-D1 [13]) was 47%, the Activity (NTERA-2-cl-D1 [14]) was 55.66% and the Activity (NTERA-2-cl-D1 [15]) was 13.18%. The Activity (NTERA-2-cl-D1 [16]) was 0%, the viability at 25 µM (NTERA-2-cl-D1 [17]) was 31.2% and the Activity (THP-1 [18]) was 1.45%. The Activity (THP-1 [19]) was 2.66%, the Activity (THP-1 [20]) was 0.2% and the viability at 25 µM (THP-1 [21]) was 95.7%. It also gave an Activity (THP-1 [22]) of 5.81%, an Activity (THP-1 [23]) of 16.53% and an Activity (THP-1 [24]) of 0.3%. For the same compound, the viability at 25 µM (THP-1 [25]) was 77.3% and the Activity (THP-1 [26]) was 33.25%.
